# Results reported in PubChem BioAssay (NCI).
# Where “and” joins values, the source holds several entries; their conditions need not be identical. Equal values may be shown once.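 Exposure lasted 48 hours, with cells grown in 96-well plates and compounds tested at five concentrations. GI50 = concentration required for 50% inhibition of growth. Definition used: TGI = concentration required for complete inhibition of growth.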
# Columns and labels:
# Test in all cases: NCI anticancer screen, dose series, 48 h
# SNB-19 CNS = system: SNB-19 CNS
# OVCAR-4 ovarian = system: OVCAR-4 ovarian
# MOLT-4 leukemia = system: MOLT-4 leukemia
# ACHN renal = system: ACHN renal
# A498 renal = system: A498 renal
# OVCAR-3 ovarian = system: OVCAR-3 ovarian
# HOP-62 NSCLC = system: HOP-62 NSCLC
# BT-549 breast = system: BT-549 breast
# SW-620 colon = system: SW-620 colon
# RPMI-8226 leukemia = system: RPMI-8226 leukemia
SMILES,GI50 (SNB-19 CNS),TGI (SNB-19 CNS),GI50 (OVCAR-4 ovarian),TGI (OVCAR-4 ovarian),GI50 (MOLT-4 leukemia),TGI (MOLT-4 leukemia) [nM],GI50 (ACHN renal),TGI (ACHN renal),GI50 (A498 renal),TGI (A498 renal),GI50 (OVCAR-3 ovarian),TGI (OVCAR-3 ovarian),GI50 (HOP-62 NSCLC),TGI (HOP-62 NSCLC),GI50 (BT-549 breast),TGI (BT-549 breast),GI50 (SW-620 colon),TGI (SW-620 colon),GI50 (RPMI-8226 leukemia),TGI (RPMI-8226 leukemia) [nM]
CCSCC1CC(O)(c2ccccc2)C(c2ccccc2)C(c2ccc(F)cc2)O1 (stereo not given),2050 nM,7600 nM,2410 nM,8040 nM,1610 nM,4910,2220 nM,5540 nM,2150 nM,3700 nM,2190 nM,5260 nM,2080 nM,4520 nM,2310 nM,7720 nM,1810 nM,4320 nM,1140 nM,5950
CCC(c1ccccc1)c1noc(CCN(CC)CC)n1 (stereo not given),> 78400 nM,> 100000 nM,16400 nM,40700 nM,40900 nM,> 100000,16100 nM,31300 nM,> 81900 nM,> 100000 nM,25300 nM,> 56200 nM,42500 nM,> 100000 nM,39600 nM,> 100000 nM,21000 nM,> 68100 nM,13200 nM,> 100000
Nc1nccc(-c2c(-c3ccc(F)cc3)nn3cc(C(F)(F)F)ccc23)n1,> 25000 nM,> 25000 nM,> 25000 nM,> 25000 nM,> 25000 nM,> 25000,> 25000 nM,> 25000 nM,> 25000 nM,> 25000 nM,> 25000 nM,> 25000 nM,> 21900 nM,> 25000 nM,> 25000 nM,> 25000 nM,> 25000 nM,> 25000 nM,> 25000 nM,> 25000
COc1ccc(-c2nc3ccc(Cc4ccc5nc(-c6ccc(OC)cc6)[nH]c5c4)cc3[nH]2)cc1,46.9 nM,5800 nM,189 nM,2140 nM,< 10 nM,1290,101 nM,1960 nM,18 nM,193 nM,21.7 nM,50.3 nM,29.1 nM,2070 nM,231 nM,2540 nM,< 15.1 nM,173 nM,42.5 nM,326
COc1cc(C(=O)/C=C/c2cccc(Nc3ccnc4cc(Cl)ccc34)c2)cc(OC)c1OC,1180 nM,2450 nM,1260 nM,2570 nM,1790 nM,6460,1240 nM,2490 nM,1540 nM,4210 nM,389 nM,1390 nM,676 nM,2270 nM,1230 nM,2840 nM,445 nM,2440 nM,312 nM,1420
CN(C)c1ccc(-c2cc(-c3ccc(Nc4nc(Nc5ccc(Cl)cc5)nc(Nc5ccc(Cl)cc5)n4)cc3)nc(N)c2C#N)cc1,> 100000 nM,> 100000 nM,9860 nM,> 100000 nM,2130 nM,20500,13100 nM,> 100000 nM,6410 nM,> 100000 nM,13600 nM,92000 nM,> 100000 nM,> 100000 nM,71200 nM,> 100000 nM,5600 nM,22700 nM,864 nM,53800
CC[C@H](C)[C@H](NC(=O)[C@H]1CCCCN1C)C(=O)N(C)[C@H](C[C@@H](OC(C)=O)c1nc(C(=O)NC23CC(C(=O)OC)(C2)C3)cs1)C(C)C,1.05 nM and 3.25 nM,> 32500 nM,42.4 nM and 72.7 nM,> 32500 nM,0.696 nM and 3.25 nM,> 32500,8.06 nM and 3.25 nM,> 32500 nM,7.23 nM and 3.25 nM,277 nM,0.256 nM and < 3.25 nM,15.8 nM and < 3.25 nM,0.538 nM and 3.25 nM,–,0.48 nM and 3.25 nM,25.3 nM and 31.8 nM,0.424 nM and 3.25 nM,> 32500 nM,0.328 nM and 3.25 nM,12100
CCO/C=C1\SC(=S)N(c2ccc(OCC)cc2)C1=O,–,> 100000 nM,–,> 100000 nM,–,> 100000,–,> 100000 nM,–,> 100000 nM,–,> 100000 nM,–,> 100000 nM,–,> 100000 nM,–,> 100000 nM,–,> 100000
CCCCCC(=O)O[C@]1(C(C)=O)CCC2C3CCC4=CC(=O)CC[C@]4(C)C3CC[C@@]21C (stereo not given in full),3270 nM,> 64800 nM,2030 nM,11600 nM,2210 nM,5170,3000 nM,11600 nM,1300 nM,3880 nM,1900 nM,3900 nM,3330 nM,10900 nM,2490 nM,4710 nM,2860 nM,15100 nM,1420 nM,4820
O=C(c1cccs1)c1c(C(F)(F)F)n([O-])c2cc(Cl)c(Cl)cc2[n+]1=O,–,–,1970 nM,4250 nM,–,> 100000,423 nM,853 nM,1270 nM,2610 nM,668 nM,1820 nM,1770 nM,3460 nM,975 nM,2520 nM,87.6 nM,865 nM,–,–
CNCc1ccc(-c2cc(-c3nc(-c4ccc(S(=O)(=O)C(C)C)cc4)cnc3N)on2)cc1,12100 nM,36800 nM,5050 nM,22800 nM,376 nM,3070,115 nM,10900 nM,–,2030 nM,2930 nM,10600 nM,4560 nM,22600 nM,2040 nM,30400 nM,1430 nM,3780 nM,1310 nM,8450
COc1cc2nnc3c4cccnc4[nH]c3c2cc1OC,9040 nM and 2770 nM,42400 nM and 15400 nM,1950 nM and 1600 nM,50000 nM and > 100000 nM,–,–,298 nM and 333 nM,3540 nM and 1520 nM,9260 nM and 2740 nM,26200 nM and 12400 nM,1370 nM and 1150 nM,22600 nM and 5500 nM,13500 nM and 2260 nM,37100 nM and 5610 nM,6420 nM and 3750 nM,43900 nM and 35100 nM,961 nM and 444 nM,50000 nM and > 100000 nM,1450 nM and 187 nM,–
Cc1ccc(S(=O)(=O)NCCCCC(N)C(=O)O)cc1 (stereo not given),–,> 100000 nM,–,> 100000 nM,–,> 100000,–,> 100000 nM,–,> 100000 nM,–,> 100000 nM,–,> 100000 nM,–,> 100000 nM,–,> 100000 nM,–,> 100000
